According to patent publication US12516026B2, “Cabozantinib compositions and methods of use” (priority 2023, dated 2026):

Assays:
[1] = Example 25: impurity profile of cabozantinib lauryl sulfate lots stored at 40° C. and 75% relative humidity; format: physicochemical; conditions: 40° C./75% RH
[2] = single dose, healthy human subjects, cited from earlier work

Row | Related Substance 1 Int2-Imp1 ([1]; 0 months) | Related Substance 1 Int3-Imp5 ([1]; 0 months) | Related Substance 1 Total imp. ([1]; 0 months) | Related Substance 1 Unidentified imp ([1]; 0 months) | Related Substance 2 Int1 ([1]; 0 months) | Water Content ([1]; 0 months) | Related Substance 1 Int2-Imp1 ([1]; 1 month) | Related Substance 1 Int3-Imp5 ([1]; 1 month) | Related Substance 1 Total imp. ([1]; 1 month) | Related Substance 2 Int1 ([1]; 1 month) | Related Substance 1 Int2-Imp1 ([1]; 3 months) | Related Substance 1 Int3-Imp5 ([1]; 3 months) | Related Substance 1 Total imp. ([1]; 3 months) | Related Substance 2 Int1 ([1]; 3 months) | Water Content ([1]; 3 months) | Compound | other results
1 | 0.10% | 0.05% | 0.24% | <0.05% | 5.22 ppm | 0.31% | 0.11% | <0.05% | 0.24% | 5.98 ppm | 0.13% | <0.05% | 0.29% | 6.99 ppm | 0.05% | CCCCCCCCCCCCOS(=O)(=O)O.COc1cc2nccc(Oc3ccc(NC(=O)C4(C(=O)Nc5ccc(F)cc5)CC4)cc3)c2cc1OC [Example 25C, cabozantinib lauryl sulfate] | Related Substance 1 Int3-Imp7 ([1]; 0 months): <0.05%; Related Substance 1 Int3-Imp7 ([1]; 1 month): 0.05%; Related Substance 1 Unidentified imp ([1]; 1 month): <0.05%; Water Content ([1]; 1 month): 0.29%; Related Substance 1 Int2-Imp1 ([1]; 2 months): 0.13%; Related Substance 1 Int3-Imp5 ([1]; 2 months): <0.05%; Related Substance 1 Int3-Imp7 ([1]; 2 months): <0.05%; Related Substance 1 Total imp. ([1]; 2 months): 0.21%; Related Substance 2 Int1 ([1]; 2 months): 6.07 ppm; Water Content ([1]; 2 months): 0.068%; Related Substance 1 Int3-Imp7 ([1]; 3 months): <0.05%; Related Substance 1 Unidentified imp ([1]; 3 months): <0.05%
2 | 0.12% | <0.05% | 0.20% | 0.06% | 2.77 ppm | 0.19% | 0.07% | <0.05% | 0.09% | 6.28 ppm | 0.06% | <0.05% | 0.11% | 6.50 ppm | 0.10% | CCCCCCCCCCCCOS(=O)(=O)O.COc1cc2nccc(Oc3ccc(NC(=O)C4(C(=O)Nc5ccc(F)cc5)CC4)cc3)c2cc1OC [Example 25B, cabozantinib lauryl sulfate] | Related Substance 1 Int3-Imp2 ([1]; 3 months): <0.05%; Related Substance 1 Int2-Imp1 ([1]; 6 months): 0.10%; Related Substance 1 Int3-Imp5 ([1]; 6 months): <0.05%; Related Substance 1 Int3-Imp7 ([1]; 6 months): <0.05%; Related Substance 1 Total imp. ([1]; 6 months): 0.10%; Related Substance 1 Unidentified imp ([1]; 6 months): <0.05%; Related Substance 2 Int1 ([1]; 6 months): 7.34 ppm
3 |  |  |  |  |  |  |  |  |  |  |  |  |  |  |  | ^14C-cabozantinib | radioactivity recovered in feces ([2]; 48-day collection period): approximately 54%; radioactivity recovered in urine ([2]; 48-day collection period): ~27%; total administered radioactivity recovered ([2]; within a 48-day collection period): approximately 81%
